Consider 4 compounds from patent US20180371408A1, “CELL CULTURES AND METHODS OF USE” (priority 2017, published 2018).

In series [1] the test system is testicular cell co-culture (C18-4, TM4, TM3). Nature of the series: Machine learning-based HCA phenotype classification (multinucleated cells, M phase, stretching F-actin filaments). It is filed as cell-based, mouse. Particulars: for induction of multinucleated cells, in words: FIG. 12F. From the text: Our processing pipeline included cell segmentation, localization, and measurements of multiple features of single cells. This pipeline identified the nuclei from the Hoechst 33342 (nuclei) channel and used the nuclei as primary objects to assist in the identification of secondary objects, which included F-actin and γ-H2AX in each cell. The pipeline (which is freely available from the authors upon request) has the ability to measure over 200 cellular features, including size, shape, intensity, and texture of nuclei, intensity, and texture of F-actin, and intensity of γ-H2AX in a single cell. In order to measure the nuclear area and shape of a cell, multiple features such as object area, perimeter eccentricity and orientation had to be extracted. Object intensity was determined through measurements of various intensity statistics including the integrated intensity, the mean intensity, and the maximal or minimal pixel intensities within an object or on the object's edge. To quantify the object's texture, Haralick texture features derived from the co-occurrence matrix were employed to calculate the occurrence of pairs of pixels with specific intensity values and spatial relationships in an image. The texture features were described by homogeneity, local variation, randomness, and the contrast of object texture. Supervised ML was performed with the CellProfiler Analyst via the “RandomForest Classifier” algorithm (Broad Institute, MA) (Jones et al., 2008). RandomForest is an ensemble learning method that constructs decision trees with an averaged prediction, and is robust in high-dimensional data analysis with low bias (Breiman, 2001).
In the current study, we quantified three key phenotypic changes in the co-culture model. The first change we noticed was the induction of multinucleated cells, a unique toxicity marker for BPAF observed in spermatogonia cells in the previous study, was once again examined in the current co-culture testicular cell model. As depicted in FIG. 10, the multinucleated phenotype was identified as a cell with giant nuclei and irregular nuclear contour. […] Mitotic phenotypes were identified as cells with small condensed nuclei with a round shape (prometaphase), condensed nuclei with shallow concavities (metaphase), and nuclei with separated and aligned chromosomes (anaphase, telophase, and late telophase). […] Cells with phenotypic 3D structure have F-actin bundles stretching across their cytoplasm. During the training process, a small set of unclassified objects were manually sorted into two classes, including non-multinucleated cells or multinucleated cells, cells not in M phases or cells in M phase, and cells with or without stretching F-actin filaments. The maximum number of features was set as 20 in order to generate rules for phenotypic classification, and those features were automatically selected by the RandomForest classifier to capture the subtle differences between the classes. The phenotype classification was based on the images acquired by Arrayscan™ VTI HCS reader, and multiple features were measured by CellProfiler. The input features included values describing nuclei size and shape, DNA intensity and texture, F-actin intensity and texture, and γ-H2AX intensity at the single-cell level. For multinucleated cells and M phase cells, the training set was established by visual examination of the images in the nuclei channel. For a cell with stretching F-actin filaments, initial manual classification during the training process was based on multi-channel images, including nuclei, F-actin and γ-H2AX. The results were presented in terms of the number of cells in predefined classes and total cell number per image field. The field-based data were averaged for the well-based condition.
(§1) Data were presented as mean±standard deviation (SD).

The subject of a further series is Leydig cells (TM3). Nature of the series: cells. The format is cell-based, mouse. Particulars: Mus musculus, Leydig, read-out: IC50.
Series [2] relates to testicular cell co-culture (C18-4, TM4, TM3). The series can be described thus: High-content image analysis of nuclear morphology and cell number. The format is cell-based, mouse. The method, then:
BrdU incorporation, cell fixation, BrdU, and DNA staining followed the previously published protocol (Liang, et al., 2017b). the determination of DNA damage responses and cytoskeleton analysis was conducted after cell fixation. The cells were then permeabilized by a 0.1% Triton X-100 in PBS, and then incubated with a mouse-anti phosphor-histone H2AX (Ser139) (γ-H2AX) overnight at 4° C. […] Finally, prior to acquiring the images, the cells were stained with Alexa Fluor 488 Phallodin for 30 minutes to stain the F-actin (Liang, et al., 2017)
Multi-channel images were then automatically acquired using an Arrayscan™ VTI HCS reader (Thermo Scientific, MA) with the HCS Studio 2.0 Target Activation BioApplication module. Forty-nine fields per well were acquired at 20× and 40× magnification using a Hamamatsu ROCA-ER digital camera in combination with a 0.63× coupler and Carl Zeiss microscope optics in auto-focus mode. Image smoothing was conducted in order to reduce object fragmentation prior to the primary object identification that takes place in the first channel. Channel one (Ch1) applied the BGRFR 386_23 for Hoechst 33342 that was used for auto-focus, object identification, and segmentation. The border objects were then excluded. Channel two (Ch2) applied applied the BGRFR 549_15, which identified the BrdU staining and BGRFR 485_20 to identify the F-actin staining. BGRFR 650_13 was applied in Channel three (Ch3) and identified the γ-H2AX staining.
Multi-Channel images were analyzed using HCS Studio™2.0 TargetActivation BioApplication. Multiple parameters of nuclei were characterized in HCA, including nuclei number, nuclear area, shape, and total DNA intensity. Nuclear shape measurements included P2A, a ratio of the nuclear perimeter squared to 4it*nucleus area (perimeter^2/4π*enuclear area) to evaluate nuclear smoothness, and LWR, a ratio of the nuclear length to width, to measure nuclear roundness. For a fairly round and smooth object, the values for P2A and LWR are around 1.0. Total intensity was defined as total pixel intensity within a cell in the respective channel. The total intensities of BrdU, γ-H2AX, and F-actin of the individual cells were also quantified. With forty-nine 20× images acquired from each well, at least 1,000 cells were analyzed per well, and single-cell based data were extracted for further analysis. The experiments were performed with at least four biological replicates and repeated twice.
as §1

In series [3] the test system is testicular co-culture: spermatogonial cells (C18-4), Sertoli cells (TM4), Leydig cells (TM3). Particulars: co-culture; for in vitro call as reproductive toxicant: 48 h, based on cluster analysis; for effect on cell viability (NR uptake), in words: 48 h treatment, FIG. 6.
Another series has as its system Sertoli cells (TM4). Nature of the series: cells. It is filed as cell-based, mouse. To be noted: Mus musculus, read-out: IC50.
For series [4], the system named is human breast cancer cells. To be noted: cited from earlier work.
Another series has as its system HepG2 cell line. Particulars: cited from earlier work.
The subject of series [5] is pregnancies and sexual development. Particulars: rats, doses of ˜80 and ˜280 mg/kg; cited from earlier work.
The subject of a further series is reproductive system. To be noted: based on ToxCast database and literature search; cited from earlier work.

pIC50: −log10 of the molar value. Where two headings read alike, the source gives them in different places.

`O=S(=O)(c1ccc(O)cc1)c1ccc(O)cc1` [BPS, 4,4′-Sulfonyldiphenol]: the “doses with significant induction of cells in M phase” value (“doses with significant induction” for short) in series [1] (48 and 72 h) was found to be 100 µM. Moreover, the “doses with significant decrease of cells with stretching F-actin filaments (phenotypic 3D structure)” value in series [1] (72 h) amounted to 100 µM. For the same compound, in [1], the “induction of multinucleated cells, in words” value (“induction … in words” below) is given as “did not induce multinucleation”. For the same compound, the pIC50 with Leydig cells (TM3) (24 h) was 3.36; with Leydig cells (TM3) (48 h), not above 3.40; in the series with Sertoli cells (TM4) (24 h) it was 3.68; in the series with Sertoli cells (TM4) (48 h), 4.13. The “doses significantly reducing cell number” value in series [2] (24 h) turned out to be 100 µM. Besides, the “doses with significant increase in nuclear area” value (from here on “doses with significant increase”) in [2] (72 h) was 100 µM. Moreover, in series [3], the “in vitro call as reproductive toxicant” value was “positive”. In addition, in [3], the “effect on cell viability (NR uptake), in words” value is given as “significant dose-dependent decrease of cell viability”.

For `CC(C)(c1ccc(O)cc1)c1ccc(O)cc1` [BPA, 4,4′-(propane-2,2-diyl) diphenol], the “dose able to induce γ-H2AX” value in series [4] was 10 nM. The “doses with significant induction” value in [1] (48 and 72 h) came to 100 µM. In addition, the “doses with significant decrease of cells with stretching F-actin filaments (phenotypic 3D structure)” value in [1] (24 h) amounted to 100 µM. In series [1], the “induction … in words” value is on record as “did not induce multinucleation”. Further, the pIC50 in the series with Leydig cells (TM3) (24 h) is 4.06; in the series with Leydig cells (TM3) (48 h), 4.09; in the series on Sertoli cells (TM4) (24 h) it was 4.05; in the series with Sertoli cells (TM4) (48 h), 4.10. Also, the “dose not able to induce γ-H2AX” value in the series with HepG2 cell line is more than 100 µM. Also, in series [2] (24, 48, and 72 h), the “doses with significant increase” value was found to be 100 µM. Further, the “doses significantly reducing LWR (nuclear roundness)” value (shortened to “doses significantly reducing LWR”) in series [2] (48 and 72 h) was not below 25 µM; in series [2] (24 h) it was not below 50 µM. The “doses significantly reducing P2A (nuclear smoothness)” value (from here on “doses significantly reducing P2A”) in [2] (24 h) turned out to be 50 µM. Besides, in [2] (24 h), the “doses significantly reducing cell number” value is 100 µM. Also, in series [2] (24 h), the “doses with significant decrease in nuclear area” value is not below 10 µM. Besides, in series [3], the “effect on cell viability (NR uptake), in words” value is “significant dose-dependent decrease of cell viability”. In series [5], the “effect on pregnancies and sexual development” value is “did not alter these reproductive endpoints”. Also, the “In vivo Reproductive Toxicity” value in the series on reproductive system is “+”.

Take `Oc1ccc(C(c2ccc(O)cc2)(C(F)(F)F)C(F)(F)F)cc1` [BPAF, 4,4′-(Hexafluoroisopropylidene)diphenol]: the “Spearman correlation of total F-actin and γ-H2AX intensity, multinucleated versus non-multinucleated cells” value in series [1] (5 μM for 24, 48, and 72 h) is given as “higher resulting positive correlation”. Moreover, in series [1] (24, 48, and 72 h), the “dose significantly inducing multinucleated cells” value is 5 µM. Further, the “doses with significant induction” value in series [1] (24 h) turned out to be 10 µM. Moreover, the pIC50 in the series on Leydig cells (TM3) (24 h) is 4.52; in the series with Leydig cells (TM3) (48 h), 4.70; with Sertoli cells (TM4) (24 h), 4.26; in the series on Sertoli cells (TM4) (48 h) it was 4.65. Moreover, in series [2] (24, 48, and 72 h), the “doses reducing cell number” value is not below 2.5 µM. The “doses significantly increasing LWR” value in series [2] (24 and 48 h) came to 5 µM. In addition, in series [2] (24 and 48 h), the “doses significantly increasing P2A” value worked out at 5 µM. Also, the “doses with significant increase” value in [2] (24 h) is 10 µM. Moreover, the “doses significantly reducing LWR” value in series [2] (72 h) is 15 µM. The “doses significantly reducing P2A” value in series [2] (72 h) is 15 µM. Besides, in series [3], the “in vitro call as reproductive toxicant” value is listed as “positive”. Moreover, the “effect on pregnancies and sexual development” value in series [5] was “impaired pregnancies and sexual development”.

Take `CC(C)(c1cc(Br)c(O)c(Br)c1)c1cc(Br)c(O)c(Br)c1` [TBBPA, 2,2′,6,6′-Tetrabromo-4,4′-isopropylidenediphenol]: in series [1] (24, 48, and 72 h), the “doses with significant induction” value amounted to 15 µM. The “induction … in words” value in [1] is reported as “did not induce multinucleation”. Besides, the pIC50 in the series with Leydig cells (TM3) (24 h) is 4.15; in the series on Leydig cells (TM3) (48 h), 4.22; in the series with Sertoli cells (TM4) (24 h), 4.22; in the series with Sertoli cells (TM4) (48 h) it was 4.42. Besides, the “doses reducing cell number” value in series [2] (24, 48, and 72 h) was not below 10 µM. In series [2] (24, 48, and 72 h), the “doses with significant increase” value stood at 15 µM. Moreover, the “doses significantly increasing P2A” value in series [2] (24 and 48 h) was determined as 15 µM. In addition, the “doses significantly reducing LWR” value in series [2] (72 h) was determined as 15 µM. Further, in series [2] (72 h), the “doses significantly reducing P2A” value stood at 15 µM. Further, the “in vitro call as reproductive toxicant” value in series [3] is reported as “positive”.
